# Literature values as cited in publication PMC6848746 (Psychopharmacology, 2019).
# Like-named read-outs stand apart in the source and are kept apart here.
# How the values were obtained:
# [1] = tested on: rats; details: MMAI discrimination; ref Marona-Lewicka and Nichols 1994, 1998; cited from earlier work
# [2] = target: 5-HT2B receptor; details: read-out: 5-HT2B receptor Ki, vs. [3H]LSD, cited from earlier work
# [3] = tested on: rats; details: ref Bilsky et al. 1990, Marona-Lewicka et al. 1996; cited from earlier work
# [4] = target: hDAT; details: read-out: [125I]RTI-55 binding to hDAT Ki; ref Eshleman et al. 2017; cited from earlier work
# [5] = tested on: hDAT; details: cited from earlier work
structure (smiles),measurement,setting,value
"COC(=O)[C@H]1[C@@H](OC(=O)c2ccccc2)C[C@@H]2CC[C@H]1N2C [cocaine, reference compound]",substitution for MMAI,[1],did not substitute
"NC1Cc2ccc(I)cc2C1 (stereo not drawn) [5-IAI, 5-iodo-2-aminoindan]",Ki,[2]; ref Iversen et al. (2013),0.07 µM
"CC[C@@H](Cc1ccc2c(c1)OCO2)NC [S-(+)-MBDB, S-(+)-N-methyl-1-(1,3-benzodioxol-5-yl)-2-butanamine, reference compound]",substitution for MMAI,[1],fully substituted
"CCN[C@@H](C)Cc1cccc(C(F)(F)F)c1 [(+)-fenfluramine, reference compound]",substitution for MMAI,[1],fully substituted
"C[C@H](N)Cc1ccccc1 [(+)-amphetamine, reference compound]",substitution for MMAI,[1],did not substitute
CC(N)Cc1ccc2c(c1)OCO2 (stereo not drawn) [MDA],Ki,[2]; ref Setola et al. 2003,0.1 µM
"CNC(C)Cc1ccc2c(c1)OCO2 (stereo not drawn) [MDMA, 3,4-methylenedioxymethamphetamine, reference compound]",Ki,[2]; ref Setola et al. 2003,0.5 µM
same,substitution for MMAI,[1],fully substituted
same,place conditioning effect,[3],conditioned place preference
CN[C@@H](C)Cc1ccccc1 [methamphetamine],Ki,[4],4.58 µM
same,IC50,"[5]; read-out: [3H]DA uptake inhibition IC50, ref Eshleman et al. 2017",0.0667 µM
same,fold higher potency for [3H]DA uptake inhibition than [125I]RTI-55 displacement,[5]; ref Eshleman et al. 2017,about 70 fold
